Reference: PMC4444023 (PLoS ONE, 2015)
Each block holds one compound with its values, some of them ahead of it.

Legend:
nSMase = target: nSMase; design: method as in PMID 21615386, PMID 17049336; conditions: cited from earlier work
human nSMase2 = target: T1, human nSMase2 (Homo sapiens, UniProt Q9NY59); assay: 14C-SM confirmatory direct activity assay; type: biochemical; design: Full length human nSMase2 cDNA with a C-terminal Flag tag; host or cells: HEK293, stably transfected; crude cell lysate used as enzyme; conditions: for IC50: [14C]-SM direct activity assay, human recombinant enzyme
T1 sequence (Q9NY59 1-655): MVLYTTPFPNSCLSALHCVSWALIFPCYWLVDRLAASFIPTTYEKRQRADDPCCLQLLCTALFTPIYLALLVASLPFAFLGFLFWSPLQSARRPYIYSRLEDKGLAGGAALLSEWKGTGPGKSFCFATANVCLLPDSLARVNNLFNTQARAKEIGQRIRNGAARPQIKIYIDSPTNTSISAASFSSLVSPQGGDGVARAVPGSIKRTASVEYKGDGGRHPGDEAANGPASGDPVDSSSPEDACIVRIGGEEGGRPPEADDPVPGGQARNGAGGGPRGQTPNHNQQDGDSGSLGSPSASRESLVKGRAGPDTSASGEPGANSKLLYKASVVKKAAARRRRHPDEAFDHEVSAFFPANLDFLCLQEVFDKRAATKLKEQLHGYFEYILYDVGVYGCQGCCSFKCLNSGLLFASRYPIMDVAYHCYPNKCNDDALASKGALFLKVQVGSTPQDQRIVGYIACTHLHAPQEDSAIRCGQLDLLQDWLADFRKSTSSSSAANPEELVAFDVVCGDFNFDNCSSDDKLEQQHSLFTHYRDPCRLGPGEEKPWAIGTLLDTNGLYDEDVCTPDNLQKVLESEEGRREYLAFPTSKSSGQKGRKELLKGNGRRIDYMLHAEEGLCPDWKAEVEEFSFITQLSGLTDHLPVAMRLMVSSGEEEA
Method: This assay was dependent on the direct hydrolysis of ^14C-labeled SM (^14C N-methyl groups in the phosphorylcholine) by human nSMase2. Optimization of assay conditions was accomplished according to the methods of Barbone et al.. Briefly, bovine [N-methyl-^14C]-sphingomyelin (specific activity […], Perkin Elmer) and phosphatidylinositol (Avanti Polar Lipids) were evaporated to dryness under a stream of nitrogen and resuspended at an equimolar concentration of 0.1 mM in water with 0.5% Triton X-100 (Sigma). The solution was vortexed for 30 min and then sonicated for 30 min. Assay conditions were as follows: 50 μl total volume per reaction, consisting of 20 μM SM, reaction buffer (100 mM Tris-HCl pH 7.5, 80 mM MgCl2, 0.1% Triton X-100); 10 μl cell lysate containing recombinant human nSMase2 (0.5–1 μg protein/assay) and 5 μl of compound in reaction buffer containing 10% DMSO. After 1 h incubation at 37°C the reaction was terminated by the addition of 30 μl of water and 175 μl of chloroform/methanol (2:1, v:v), followed by vigorous vortexing. Tubes were centrifuged for 5 min at 10,000 xg at room temperature to separate the organic bottom phase containing labeled SM and the aqueous upper phase containing ^14C-labeled-phosphorylcholine. An aliquot (50 μl) of the upper phase was transferred to a vial with 10 ml of scintillant and counted for 2 min on a Beckman LS-6000IC scintillation counter. Enzyme activity was directly proportional to the disintegrations per min (dpm) resulting from the generation of ^14C-phosphorylcholine.

[1] = tested on: rat primary hippocampal neurons; assay: Hippocampal neuronal survival (Hoechst 33342); type: cell-based
Method: All animal procedures were approved by the Johns Hopkins University Animal Care and Use Committee. Primary hippocampal neurons were prepared from day 18 decapitated embryos of Sprague-Dawley rats following previously described methods. Cells were seeded on polyethyleneimine (PEI)-coated slides in 12-well plates and cultured between 14–21 days. […] After 18 h, cells were stained with 50 μg/ml Hoeschst 33342 for 20 min and then fixed with 4% paraformaldehyde for 30 min. The number of living and apoptotic cells was determined by fluorescence microscopy. A minimum of 500 cells were counted per treatment condition. Results were normalized to control untreated cells and were representative of at least two independent experiments conducted in triplicate. Statistical evaluation of the data was done by Student’s t-test.

IC50 (human nSMase2): 7 ± 1 µM
Compound: O=c1[nH]c(=S)[nH]c(-c2cccc(Cl)c2)c1Cc1c(O)ccc2ccccc12 [compound 8]

IC50 (human nSMase2): 2 ± 1 µM
Compound: O=c1[nH]c(=S)[nH]c(-c2ccc(Br)cc2)c1Cc1c(O)ccc2ccccc12 [compound 7]

IC50 (human nSMase2): 6 ± 3 µM
Compound: O=c1[nH]c(=S)[nH]c(-c2ccccc2F)c1Cc1c(O)ccc2ccccc12 [compound 9]

The remaining lines, values behind:

Compound: CC1CC2C(C=CC3CC(O)CC4CC(=O)C(=CC32)C(=O)O4)C1=O (centres unmarked) [Macquarimicin A]
IC50 (nSMase; Enzyme source: Rat brain): 145 µM
MOI (nSMase): Non- competitive

Compound: CC[C@@H](C)/C=C(\C)C[C@@H](C)C[C@@H](C)/C=C/C=C/C=C/C(=O)N[C@H](CO)C[C@@]1(O)C(=O)C=C[C@@H]2O[C@@H]21 [Scyphostatin]
MOI (nSMase): Competitive

Compound: O=c1nc(SCc2ccccc2)[nH]c(-c2ccccc2)c1Cc1c(O)ccc2ccccc12 [compound 3]
human nSMase2 inhibitory activity of analog vs cambinol (human nSMase2; SAR): loss of activity
IC50 (human nSMase2): > 50 µM

Compound: O=c1cc(-c2ccccc2)[nH]c(=S)[nH]1 [compound 5]
IC50 (human nSMase2): > 50 µM
increase in IC50 value (human nSMase2; vs cambinol): 10 fold

Compound: O=P(O)(O)C(O)(Cn1ccnc1)P(=O)(O)O [zoledronic acid, reference compound]
neuron survival, Mean (normalized to control untreated cells) ([1]; 100 ng/ml IL1β 18 h, 10 µM compound): 84.88
neuron survival, Mean (normalized to control untreated cells) ([1]; 100 ng/ml IL1β 18 h, 25 µM compound): 85.75
neuron survival, Mean (normalized to control untreated cells) ([1]; 100 ng/ml TNFα 18 h, 10 µM compound): 80.07
neuron survival, Mean (normalized to control untreated cells) ([1]; 100 ng/ml TNFα 18 h, 25 µM compound): 81.28
